Data on 16 molecules can be found in article PMC10892497, “Discovery of Pyrano[2,3-c]pyrazole Derivatives as Novel Potential Human Coronavirus Inhibitors: Design, Synthesis, In Silico, In Vitro, and ADME Studies” (Pharmaceuticals, 2024).

Each structure is given as a SMILES string. Like-named read-outs stand apart in the source and are kept apart here.

A short description of series [1]: MTT assay for cellular toxicity. Conditions: African green monkey. In general terms: Formazan colour is commonly taken as a measure of viable cells.
Series [2] has as its system HCoV-229E. The series is described as follows: Cytopathic inhibition assay (crystal violet). Conditions: for antiviral activity against HCoV-229E (in words): Vero-E6; for IC50: cytopathic inhibition assay.
In series [3] the test system is HCoV-229E. The series is described as follows: Mode of action using plaque assay (virucidal, adsorption, replication). Conditions: replication mechanism. Type of series: cell-based, human coronavirus 229E.
For series [4], the target named is T1, SARS-CoV2 protease enzyme (3CL protease, M^pro) (Severe acute respiratory syndrome coronavirus 2, UniProt P0DTD1).
T1 construct: provided with 30 µL of diluted 3CL Protease enzyme solution (M^pro); purchased BPS Bioscience, San Diego, CA, USA #79955-1
The series is described as follows: Protease (SARS-CoV2) inhibition test, 3CL Protease Test Kit. Type of series: biochemical.

The mark [5] stands for this setting: Human coronavirus 229E, Vero C1008, HCoV-229E in Vero-E6 cells.
[6] abbreviates: Vero-E6 cells infected with HCoV-229E.

The molecule `Cc1n[nH]c2c1C(c1cccs1)c1c(N)ncnc1O2` (stereo not drawn) [Compound 2] showed a CC50 at 48 h in series [1] of 749 µM. Further, in the series on HCoV-229E [2], the selectivity ratio came out at 2.4 and the “antiviral activity against HCoV-229E (in words)” value (“antiviral activity” for short) is given as “minimal antiviral activity”. For the same molecule, the IC50 in the series with HCoV-229E [2] (setting [5]) was 309 µM.

In turn, `Cc1n[nH]c2c1C(c1cccs1)C(C#N)=C(/N=C/c1nncn1C)O2` (stereo not drawn) [Compound 4] yielded a CC50 at 48 h in series [1] of 67.5 µM. Moreover, in the series with HCoV-229E [2], the selectivity ratio is 0.9 and the “antiviral activity” value is given as “did not”. In addition, the IC50 in the series with HCoV-229E [2] (HCoV-229E in Vero-E6 cells) worked out at 70.1 µM. Half-maximal inhibition in the series with HCoV-229E [2] (setting [5]) (IC50) required 78.1 µM.

In series [1], `Cc1n[nH]c2c1C(c1cccs1)C(C#N)=C(N1C(=O)CSC1c1nncn1C)O2` (stereo not drawn) [Compound 5] registered a CC50 at 48 h of 95.4 µM. Also, in the series with HCoV-229E [2], the selectivity ratio was determined as 1.86 and the “antiviral activity” value is “minimal antiviral activity”. This molecule also registered an IC50 in the series on HCoV-229E [2] (setting [5]) of 51.2 µM.

As to `Cc1n[nH]c2c1C(c1cccs1)C(C#N)=C(N1C(=O)C(Cl)C1c1nncn1C)O2` (stereo not drawn) [Compound 6], in the series on HCoV-229E [3], the “reduction percentage, replication phase” value is listed as 53.6%. Also, the IC50 in series [4] is 105 µM; with HCoV-229E [2] (HCoV-229E in Vero-E6 cells), 89.4 µM; in the series on HCoV-229E [2] (setting [5]), 65.6 µM. The molecule also yielded a CC50 at 48 h in series [1] of 585 µM. In addition, in the series on HCoV-229E [2], the “antiviral activity” value is reported as “moderate efficacies”. In the series on HCoV-229E [2] (setting [6]), the selectivity ratio stood at 7.6.

For `COP(=O)(OC)C1(c2csnn2)NC2=C(C1=O)C(c1cccs1)c1c(C)n[nH]c1O2` (stereo not drawn) [Compound 7, dimethyl(3-methyl-5-oxo-6-(1,2,3-thiadiazol-4-yl)-4-(thiophen-2-yl)-4,5,6,7-tetrahydro-1H-pyrrolo[3′,2′:5,6]pyrano[2,3-c]pyrazol-6-yl)phosphonate], the “reduction percentage, replication phase” value with HCoV-229E [3] is 60.7%. The figures for the IC50 (in series [4]; in the series on HCoV-229E [2] (HCoV-229E in Vero-E6 cells); in the series with HCoV-229E [2] (setting [5])) were 772 µM, 25.8 µM and 35.8 µM, respectively. In series [1], this molecule registered a CC50 at 48 h of 190 µM. Also, the selectivity ratio with HCoV-229E [2] came to 4.3. Also, the “antiviral activity” value in the series on HCoV-229E [2] is “moderate efficacies”.

In turn, `Cc1n[nH]c2c1C(c1cccs1)C1=C(NC(c3csnn3)c3c(C(F)(F)F)nn(C)c3OC1=N)O2` (stereo not drawn) [Compound 8] came in with a CC50 at 48 h in series [1] of 45.3 µM. In addition, in the series with HCoV-229E [2], the selectivity ratio came out at 0.6 and the “antiviral activity” value is listed as “did not”. This molecule also returned an IC50 with HCoV-229E [2] (HCoV-229E in Vero-E6 cells) of 69.1 µM. For the same molecule, in the series with HCoV-229E [2] (setting [5]), the midpoint of inhibition, the IC50, lay at 86.2 µM.

`CCO/C=N/C1=C(C#N)C(c2cccs2)c2c(C)n[nH]c2O1` (stereo not drawn) [Compound 9]: the midpoint of cytotoxicity in series [1], the CC50 at 48 h, lay at 365 µM. Further, in the series with HCoV-229E [2], the selectivity ratio turned out to be 2.3 and the “antiviral activity” value is “minimal antiviral activity”. Also, the IC50 in the series on HCoV-229E [2] (HCoV-229E in Vero-E6 cells) amounted to 134 µM. Also, half-maximal inhibition with HCoV-229E [2] (setting [5]) (IC50) required 134 µM.

As to `Cc1n[nH]c2c1C(c1cccs1)c1c(ncn(N)c1=N)O2` (stereo not drawn) [Compound 10], the midpoint of cytotoxicity in series [1], the CC50 at 48 h, lay at 25.4 µM. In the series on HCoV-229E [2], the selectivity ratio stood at 1.3 and the “antiviral activity” value is recorded as “minimal antiviral activity”.

Take `Cc1n[nH]c2c1C(c1cccs1)c1c(ncn3[nH]c(=S)nc13)O2` (stereo not drawn) [Compound 11]: the CC50 at 48 h in series [1] was determined as 19.7 µM. For the same molecule, in the series with HCoV-229E [2], the selectivity ratio was 1.7. Further, the IC50 in the series on HCoV-229E [2] (HCoV-229E in Vero-E6 cells) came out at 10.9 µM; in the series with HCoV-229E [2] (setting [5]) it was 16 µM. The “antiviral activity” value in the series on HCoV-229E [2] is “minimal antiviral activity”.

`Cc1n[nH]c2c1C(c1cccs1)c1c(ncn3ncnc13)O2` (stereo not drawn) [Compound 12] registered a CC50 at 48 h in series [1] of 66.6 µM. In addition, in the series on HCoV-229E [2], the selectivity ratio came out at 3.5 and the “antiviral activity” value is listed as “minimal antiviral activity”. The molecule also returned an IC50 in the series with HCoV-229E [2] (setting [5]) of 18.6 µM.

As to `Cc1n[nH]c2c1C(c1cccs1)c1c(ncn3nc(-c4nc[nH]n4)nc13)O2` (stereo not drawn) [Compound 13], in series [1], the CC50 at 48 h came to 49.8 µM. The selectivity ratio in the series with HCoV-229E [2] came to 0.46. Also, the IC50 in the series on HCoV-229E [2] (HCoV-229E in Vero-E6 cells) and in the series on HCoV-229E [2] (setting [5]) was 88.8 µM throughout. In addition, the “antiviral activity” value in the series on HCoV-229E [2] was “did not”.

As for `Cc1n[nH]c2c1C(c1cccs1)C(C#N)=C(/N=C/[C@H](O)[C@@H](O)[C@H](O)CO)O2` (stereo partly drawn) [Compound 14], the “reduction percentage, replication phase” value in the series with HCoV-229E [3] turned out to be 55%. Moreover, the IC50 in series [4] is 180 µM; with HCoV-229E [2] (setting [5]) it was 78.7 µM. This molecule came in with a CC50 at 48 h in series [1] of 507 µM. Also, the “antiviral activity” value with HCoV-229E [2] is given as “moderate efficacies”. Moreover, the selectivity ratio with HCoV-229E [2] (setting [6]) came out at 6.5.

As for `Cc1n[nH]c2c1C(c1cccs1)C(C#N)=C(/N=C/[C@@H](O)[C@H](O)[C@H](O)CO)O2` (stereo partly drawn) [Compound 15], the melting point was > 300 °C. This molecule also yielded a CC50 at 48 h in series [1] of 146 µM. In the series on HCoV-229E [2], the selectivity ratio was 1.18 and the “antiviral activity” value was “minimal antiviral activity”. The molecule further displayed an IC50 in the series with HCoV-229E [2] (HCoV-229E in Vero-E6 cells) of 123 µM. Also, in the series with HCoV-229E [2] (setting [5]), 123 µM corresponded to half-maximal inhibition (IC50).

Regarding `Cc1n[nH]c2c1C(c1cccs1)C(C#N)=C(/N=C/[C@@H](O)[C@@H](O)[C@H](O)[C@H](O)CO)O2` (stereo partly drawn) [Compound 17], the melting point is > 300 °C. Half-maximal cytotoxicity in series [1] (CC50 at 48 h) was put at 183 µM. In addition, in the series with HCoV-229E [2], the selectivity ratio stood at 1.7 and the “antiviral activity” value is reported as “minimal antiviral activity”. Also, in the series with HCoV-229E [2] (setting [5]), the IC50 stood at 95.4 µM.

As to `Cc1n[nH]c2c1C(c1cccs1)C(C#N)=C(/N=C/[C@H](O)[C@@H](O)[C@@H](O)[C@H](O)CO)O2` (stereo partly drawn) [Compound 18], the melting point was > 300 °C. In addition, the “reduction percentage, replication phase” value with HCoV-229E [3] worked out at 82.2%. The same molecule gave an IC50 in series [4] of 66.1 µM. For the same molecule, in series [1], the CC50 at 48 h was 567 µM. Further, half-maximal inhibition with HCoV-229E [2] (setting [5]) (IC50) required 44.9 µM. Further, the selectivity ratio in the series with HCoV-229E [2] (setting [6]) came out at 12.6.

`CCC[C@@]1(CCc2ccccc2)CC(O)=C([C@H](CC)c2cccc(NS(=O)(=O)c3ccc(C(F)(F)F)cn3)c2)C(=O)O1` [tipranavir, reference compound]: the IC50 in series [4] was 22.1 µM.

The term CC50 denotes the concentration giving 50% cytotoxicity. In general, IC50 refers to the midpoint of a concentration-inhibition curve. In general, melting point refers to the temperature of the solid-liquid transition.
